“Also recorded” adds a separate entry of the source.
How the values were obtained:
soft-rot fungi = assay: Activity against soft rot, test based on ENV 807 (reduction in mass of treated Pinus sylvestris wood samples); details: for Activity against soft-rot fungi in the test according to ENV 807 (in words): 0.3% active compound where stated; for Reduction in mass in % (mean): Pinus sylvestris specimens vacuum drenched with 0.3% active compound solution, ageing per EN 84, 20 weeks incubation
Protocol: The activity of prochloraz and of a copper/chromate preparation and tebuconazole, 3-iodo-2-propynyl butylcarbarbamate (IPBC) and imazalil was determined in a test based on ENV 807 (12/2001). To this end, test specimens of the wood type Pinus sylvestris of a size of 40×15×4 mm were vacuum drenched with 0.3 and 0.4% strength active compound solutions and conditioned for 14 days. This was followed by accelerated ageing according to EN 84.
Subsequently, the wood samples were placed on a malt agar medium according to EN 113 and inoculated with a spore suspension according to ENV 807. After 20 weeks of incubation, the reduction in mass of the wood samples treated was determined.

blueing fungi = details: J. A. Drysdale et al., New Zealand Journal of Forestry Science 1982; cited from earlier work

Compound | Activity against soft-rot fungi in the test according to ENV 807 (in words) (soft-rot fungi) | Reduction in mass in % (mean) (soft-rot fungi) [%] | Activity against soft-rot fungi in the test according to ENV 807 (in words) (soft-rot fungi; listed as prochloraz) | Activity against blueing fungi (in words) (blueing fungi)
CCCCNC(=O)OCC#CI [IPBC, 3-iodo-2-propynyl butylcarbarbamate] | entirely insufficient activity; also recorded: insufficiently active | >4 |  | 
CCCN(CCOc1c(Cl)cc(Cl)cc1Cl)C(=O)n1ccnc1 [Prochloraz, N-propyl-N-[2-(2,4,6-trichlorophenoxy)ethyl]imidazole-1-carboxamide] | broad activity | <2 | excellent activity; also recorded: effect comparable to that of the 0.4% strength copper/chromium standard | insufficiently active
CC(C)(C)C(O)(CCc1ccc(Cl)cc1)Cn1cncn1 (stereo not shown) [Tebuconazole, tebuconazole] | insufficiently active | >4 |  | 
C=CCOC(Cn1ccnc1)c1ccc(Cl)cc1Cl (stereo not shown) [Imazalil, imazalil] | entirely insufficient activity; also recorded: insufficiently active | >4 |  | 
